Structures are written as SMILES.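 Cultured in 96-well plates, cells were exposed to test compound for 48 hours across five concentrations. GI50 marks 50% less growth. TGI: total growth inhibition.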

Test systems include A549 NSCLC; HCT-15 colon; HOP-62 NSCLC; MALME-3M melanoma; MCF7 breast; OVCAR-8 ovarian; SK-OV-3 ovarian; SNB-19 CNS; SW-620 colon; UO-31 renal.
What all share (assay): NCI-60 cell line screen, 48 h

On to `Cc1cccc2c(=O)c3c(sc12)c(NCCN)nc1ccccc13`, for which the GI50 with A549 NSCLC is 0.823 µM; with HCT-15 colon it was 0.821 µM; in the test with HOP-62 NSCLC, 0.728 µM; in the test with MALME-3M melanoma, 0.841 µM; in the test on MCF7 breast it was 0.678 µM; in the test with OVCAR-8 ovarian it was 0.885 µM. Further, the GI50 was 3.17 µM in the test with SK-OV-3 ovarian, 0.948 µM in the test with SNB-19 CNS, 0.794 µM in the test with SW-620 colon and 0.541 µM in the test on UO-31 renal. Besides, the TGI in the test on A549 NSCLC turned out to be 1.63 µM; in the test with HCT-15 colon, 1.58 µM; in the test with HOP-62 NSCLC, 1.65 µM; in the test on MALME-3M melanoma, 1.59 µM; with MCF7 breast, 1.42 µM; with OVCAR-8 ovarian, 1.98 µM. The TGI amounted to 9.9 µM in the test with SK-OV-3 ovarian, 2.56 µM in the test with SNB-19 CNS, 1.57 µM in the test with SW-620 colon and 1.15 µM in the test with UO-31 renal.

On to `CCOC(=O)C1=C(N)Oc2cc(OC)ccc2C1c1ccc(F)c(F)c1` (stereo not given), for which the GI50 is 2.08 µM in the test on A549 NSCLC; 0.503 µM in the test on HCT-15 colon; 2.13 µM in the test on HOP-62 NSCLC; 10.3 µM in the test on MALME-3M melanoma; 0.452 µM in the test with MCF7 breast; 3.28 µM in the test on OVCAR-8 ovarian. The GI50 is 3.66 µM in the test on SK-OV-3 ovarian, 1.83 µM in the test on SNB-19 CNS, 0.516 µM in the test with SW-620 colon and 5.22 µM in the test with UO-31 renal. Further, the TGI is 19.4 µM in the test on A549 NSCLC; 14.3 µM in the test on HCT-15 colon; 19.4 µM in the test with HOP-62 NSCLC; 24.1 µM in the test with MALME-3M melanoma; 18.7 µM in the test on MCF7 breast; 19.2 µM in the test with OVCAR-8 ovarian. Moreover, the TGI came to 16.4 µM in the test on SK-OV-3 ovarian, 17.4 µM in the test with SNB-19 CNS, 15.9 µM in the test with SW-620 colon and 19.7 µM with UO-31 renal.

In the case of `O=S(=O)(c1ccccc1)C1CN(Cc2ccccc2)CCN(Cc2ccccc2)C1`, the TGI in the test on A549 NSCLC was over 100 µM; in the test on HCT-15 colon, over 100 µM; with HOP-62 NSCLC, over 100 µM; with MALME-3M melanoma, over 86.3 µM; in the test on MCF7 breast, over 100 µM; in the test with OVCAR-8 ovarian, over 60.3 µM. Besides, the TGI in the test on SK-OV-3 ovarian was over 100 µM; with SNB-19 CNS it was over 100 µM; in the test with SW-620 colon, over 78.7 µM; in the test on UO-31 renal, 77.3 µM.

As for `COC(C(=O)[C@@H](O)[C@@H](C)O)[C@@H]1Cc2cc3cc(O[C@H]4C[C@@H](O[C@H]5C[C@@H](O)[C@H](O)C(C)O5)[C@H](O)C(C)O4)c(C)c(O)c3c(O)c2C(=O)[C@H]1O[C@H]1C[C@@H](O[C@H]2C[C@@H](O[C@H]3C[C@@H](O)[C@@H](O)C(C)O3)[C@@H](O)C(C)O2)[C@H](O)C(C)O1` (stereo not given in full), the GI50 with A549 NSCLC is 0.674 µM; with HCT-15 colon, 6.59 µM; in the test with HOP-62 NSCLC, 0.189 µM; in the test on MALME-3M melanoma, 0.114 µM; with MCF7 breast, 0.0415 µM; in the test on OVCAR-8 ovarian, 0.514 µM. Also, the GI50 was 0.422 µM in the test on SK-OV-3 ovarian, 0.324 µM in the test with SNB-19 CNS, 0.715 µM in the test on SW-620 colon and 0.605 µM in the test with UO-31 renal. The TGI in the test on A549 NSCLC is over 32.5 µM; in the test on HCT-15 colon, over 32.5 µM; in the test with HOP-62 NSCLC, over 32.5 µM; in the test on MALME-3M melanoma it was 2.41 µM; in the test with MCF7 breast, over 32.5 µM; in the test on OVCAR-8 ovarian, over 32.5 µM. Moreover, the TGI with SK-OV-3 ovarian is over 32.5 µM; with SNB-19 CNS, over 32.5 µM; with SW-620 colon, over 32.5 µM; with UO-31 renal, 4.75 µM.

With `N=C1N=Nc2nc(C3(c4nc5n(c4O)C(=N)N=N5)Cc4ccccc4C3=O)c(O)n21` (stereo not given), the TGI in the test on A549 NSCLC, in the test on HCT-15 colon, with HOP-62 NSCLC, in the test on MALME-3M melanoma, in the test on MCF7 breast and in the test on OVCAR-8 ovarian was over 100 µM each time. In addition, the TGI with SK-OV-3 ovarian, with SNB-19 CNS, with SW-620 colon and in the test with UO-31 renal was over 100 µM in each case.

Regarding `COc1ccc2c(c1)c(=O)oc1cc(OC/C(=N\O)c3ccc(F)cc3)ccc12`, the GI50 in the test on A549 NSCLC is 27.8 µM; with HCT-15 colon, 20.5 µM; with HOP-62 NSCLC, 18.9 µM; in the test on MALME-3M melanoma, 16.3 µM; in the test on MCF7 breast, 19.8 µM; in the test with OVCAR-8 ovarian, 27.3 µM. Also, the GI50 was 30.4 µM in the test with SK-OV-3 ovarian, 12.2 µM in the test with SNB-19 CNS, 26.4 µM in the test with SW-620 colon and 14.3 µM in the test on UO-31 renal. The TGI is over 100 µM in the test with A549 NSCLC; 61.2 µM with HCT-15 colon; 41.8 µM in the test with HOP-62 NSCLC; 44.2 µM in the test on MALME-3M melanoma; 66 µM with MCF7 breast; 97.5 µM in the test on OVCAR-8 ovarian. Also, the TGI with SK-OV-3 ovarian is over 100 µM; with SNB-19 CNS, 58.8 µM; in the test on SW-620 colon, 96.3 µM; in the test on UO-31 renal, 28.9 µM.

`CCNCCNc1cc(C2CCCC2)c(C#N)c2nc3ccccc3n12`: the GI50 in the test on A549 NSCLC is 3.59 µM; in the test with HCT-15 colon it was 3.07 µM; with HOP-62 NSCLC it was 3.72 µM; in the test on MALME-3M melanoma, 1.73 µM; with MCF7 breast, 2.58 µM; in the test with OVCAR-8 ovarian, 3.52 µM. In addition, the GI50 was 3.26 µM with SK-OV-3 ovarian, 6.26 µM in the test with SNB-19 CNS, 2.82 µM in the test on SW-620 colon and 1.67 µM with UO-31 renal. In addition, the TGI amounted to 8.22 µM in the test with A549 NSCLC; 12.9 µM in the test with HCT-15 colon; 14.9 µM in the test with HOP-62 NSCLC; 3.45 µM in the test on MALME-3M melanoma; 13.7 µM in the test with MCF7 breast; 10.6 µM in the test with OVCAR-8 ovarian. Moreover, the TGI in the test with SK-OV-3 ovarian was found to be 12.5 µM; in the test with SNB-19 CNS, 21.1 µM; with SW-620 colon, 13.2 µM; in the test with UO-31 renal, 3.18 µM.

Turning to `O=C1C=CC(=O)N1CCCCCCCCCCN1C(=O)C=CC1=O`, the GI50 in the test with A549 NSCLC is 18.2 µM; in the test on HCT-15 colon it was 10.3 µM; in the test on HOP-62 NSCLC, 16.2 µM; with MALME-3M melanoma, 2.05 µM; in the test with MCF7 breast, 5.62 µM; in the test on OVCAR-8 ovarian it was 13.9 µM. Moreover, the GI50 in the test on SK-OV-3 ovarian is over 100 µM; in the test on SNB-19 CNS, 37.6 µM; with SW-620 colon, 2.42 µM; in the test with UO-31 renal it was 4.92 µM. Further, the TGI with A549 NSCLC is 41.5 µM; in the test with HCT-15 colon, 25.7 µM; in the test with HOP-62 NSCLC it was 31.3 µM; with MALME-3M melanoma it was 6.49 µM; in the test with MCF7 breast, 24.2 µM; with OVCAR-8 ovarian, 44 µM. Besides, the TGI in the test with SK-OV-3 ovarian is over 100 µM; with SNB-19 CNS, over 100 µM; with SW-620 colon, 6.09 µM; in the test with UO-31 renal, 19.6 µM.
